Literature values as cited in patent US20020010202A1, “Combinations of prostaglandins and brimonidine or derivatives thereof” (Allergan Sales, Inc., priority 1994, published 2002).

What was measured:
[1] = adjunctive to timolol in patients; statistically significant
[2] = in vivo
[3] = pressure rise with microkeratomes in LASIK

Row | SMILES | IOP-lowering effect [1] | neuroprotection in the eye [2] | nerve fiber thinning [3] | adverse effects (in vivo) | duration of IOP decrease (in vivo) | mean decrease in IOP (topically active carbonic anhydrase inhibitor)
1 | Brc1c(NC2=NCCN2)ccc2nccnc12 [Brimonidine] | about 20% | exhibited neuroprotective effects in the eye | lessened or totally prevented |  |  | 
2 | CCN[C@H]1C[C@H](C)S(=O)(=O)c2sc(S(N)(=O)=O)cc21 [MK 507] |  |  |  | blanching of the conjunctiva, minimal mydriasis and eyelid retraction | ≤ 12 h | 25%
3 | CC(C)(C)NC[C@H](O)COc1nsnc1N1CCOCC1 [timolol, (S)-1-tert-Butylamino-3-[(4-morpholino-1,2,5-thiadiazol-3-yl)oxy]-2-propanol] |  | did not exhibit neuroprotection |  |  |  | 
